Assay results published in patent US9867857B2, “Acetobacter and gluconacetobacter strains and their metabolites for use in inhibiting xanthine oxidase” (Food Industry Research And Development Institute, priority 2014, dated 2018).

Test system: ICR mice
Experiment: Experimental uricemia: potassium oxonate-induced high serum uric acid
Type: in vivo
Settings: potassium oxonate 400 mg/kg + allopurinol 10 mg/kg fed, 1 h after dosing
Procedure: Acetobacter pasteurianus strain AHU01 was inoculated onto an M1A plate and cultured for 2 days at 30° C. The plate was washed with 7 ml of sterile water as seed broth. 0.5 ml of the seed broth was inoculated into 50 ml of a custom media (1% soy peptone, 0.2% yeast extract, 3% glucose, 0.2% malt extract, and 3% fructose) in a 250 ml triangular flask and incubated with shaking at 150 rpm for 7 days at 30° C. The medium was then collected and centrifuged at 3000 rpm for 15 minutes. Following centrifugation, the supernatant was collected, lyophilized, and freeze-dried to form a solid fermentation product for use in animal experiments.
ICR mice were used as experimental animals. Potassium oxonate, a uricase inhibitor, was used to induce a high level of uric acid in the serum of the mice. Mice were fasted for one hour and then fed saline or potassium oxonate (400 mg/kg) via a feeding tube. After one hour, potassium oxonate-treated mice were fed saline, allopurinol (10 mg/kg), or the Acetobacter pasteurianus strain AHU01 fermentation product (150 mg or 200 mg resuspended in saline per mouse) prepared as described above. Ten animals were used for each experimental group and for the control group. The animals were sacrificed after one hour and the level of uric acid in their serum was analyzed.

Structure (SMILES): Oc1ncnc2[nH]ncc12 [allopurinol]
- serum uric acid concentration: 2.82 ± 0.28 mg/dL
